According to ChEMBL document CHEMBL4715844, “Structure-based virtual screening and biological evaluation of novel non-bisphosphonate farnesyl pyrophosphate synthase inhibitors” (Eur J Med Chem, 2020):
The source made the active and inactive calls. The calls are words filed in the database; no cut-off is given here.

Columns and labels:
[1] = molecular target: T1, Farnesyl pyrophosphate synthase (Rattus norvegicus) (UniProt P05369); assay: Inhibition of rat FPPS expressed in Escherichia coli BL21 (DE3) using GPP and IPP as substrate at 10 uM incubated for 10 mins by microplate reader
T1 sequence (whole entry): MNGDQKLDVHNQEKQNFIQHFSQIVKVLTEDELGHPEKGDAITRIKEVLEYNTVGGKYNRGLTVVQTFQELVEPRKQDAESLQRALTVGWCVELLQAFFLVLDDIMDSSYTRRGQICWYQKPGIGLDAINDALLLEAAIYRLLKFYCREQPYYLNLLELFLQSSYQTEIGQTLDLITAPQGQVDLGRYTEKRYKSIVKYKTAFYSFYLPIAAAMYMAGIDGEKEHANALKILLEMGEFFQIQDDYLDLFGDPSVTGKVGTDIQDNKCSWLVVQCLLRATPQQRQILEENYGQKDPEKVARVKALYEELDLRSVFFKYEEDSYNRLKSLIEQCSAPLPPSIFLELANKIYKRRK

[2] = molecular target: T2, Farnesyl pyrophosphate synthase (Rattus norvegicus, UniProt P05369); assay: Binding affinity to rat FPPS expressed in Escherichia coli BL21 (DE3) by isothermal titration calorimetry
T2 sequence (P05369 whole entry): T1 sequence (whole entry)

[3] = test system: LoVo; assay: Growth inhibition of human LoVo cells at 100 uM incubated for 48 hrs by MTT assay relative to control; format: functional; details: read-out: GI
[4] = test system: HCT-116; assay: Growth inhibition of human HCT116 cells at 100 uM incubated for 48 hrs by MTT assay relative to control; format: functional; details: read-out: GI
[5] = test system: LoVo; assay: Cytotoxicity against FPPS-positive human Lovo cells assessed as reduction in cell viability measured after 48 hrs by MTT assay
[6] = test system: HCT-116; assay: Cytotoxicity against FPPS-positive human HCT116 cells assessed as reduction in cell viability measured after 48 hrs by MTT assay; details: HCT-116, 48 h
[7] = test system: MDA-MB-231; assay: Cytotoxicity against FPPS-negative human MDA-MB-231 cells assessed as reduction in cell viability measured after 48 hrs by MTT assay; format: functional, cell-based; details: MDA-MB-231, 48 h
[8] = test system: LoVo; assay: Cytotoxicity against FPPS-positive human Lovo cells assessed as cell viability at 100 uM in presence of FOH measured after 48 hrs by MTT assay; format: functional; details: read-out: Activity
[9] = test system: LoVo; assay: Cytotoxicity against FPPS-positive human Lovo cells assessed as cell viability at 100 uM in presence of GGOH measured after 48 hrs by MTT assay; format: functional; details: read-out: Activity
[10] = test system: HCT-116; assay: Cytotoxicity against FPPS-positive human HCT116 cells assessed as cell viability at 100 uM in presence of FOH measured after 48 hrs by MTT assay; format: functional; details: read-out: Activity
[11] = test system: HCT-116; assay: Cytotoxicity against FPPS-positive human HCT116 cells assessed as cell viability at 100 uM in presence of GGOH measured after 48 hrs by MTT assay; format: functional; details: read-out: Activity
[12] = test system: LoVo; assay: Reduction in Ras protein expression in FPPS-positive human LoVo cells upto 75 uM measured after 48 hrs by Western blot analysis; format: functional; details: dose microM <=75, time 48.0 hrs
[13] = test system: HCT-116; assay: Reduction in Ras protein expression in FPPS-positive human HCT116 cells upto 75 uM measured after 48 hrs by Western blot analysis; format: functional, cell-based; details: dose microM <=75, time 48.0 hrs
[14] = test system: LoVo; assay: Induction of ROS generation in human Lovo cells assessed as intracellular ROS level at 75 uM by DCFH-DA staining-based flow cytometric analysis (reference value: 9.18%); format: functional
[15] = test system: HCT-116; assay: Induction of ROS generation in human HCT116 cells assessed as intracellular ROS level at 75 uM by DCFH-DA staining-based flow cytometric analysis (reference value: 8.91%); format: functional
[16] = test system: LoVo; assay: Induction of apoptosis in human Lovo cells assessed as viable cells at 25 uM after 48 hrs by Annexin V/FITC staining based flow cytometric analysis (reference value: 91.1%); format: functional; details: read-out: Activity
[17] = test system: LoVo; assay: Induction of apoptosis in human Lovo cells assessed as early apoptotic cells at 25 uM after 48 hrs by Annexin V/FITC staining based flow cytometric analysis (reference value: 6.76%); format: functional
[18] = test system: LoVo; assay: Induction of apoptosis in human Lovo cells assessed as late apoptotic cells at 25 uM after 48 hrs by Annexin V/FITC staining based flow cytometric analysis (reference value: 1.84%); format: functional
[19] = test system: LoVo; assay: Induction of apoptosis in human Lovo cells assessed as necrotic cells at 25 uM after 48 hrs by Annexin V/FITC staining based flow cytometric analysis (reference value: 0.321%); format: functional
[20] = test system: LoVo; assay: Induction of apoptosis in human Lovo cells assessed as viable cells at 50 uM after 48 hrs by Annexin V/FITC staining based flow cytometric analysis (reference value: 91.1%); format: functional; details: read-out: Activity
[21] = test system: LoVo; assay: Induction of apoptosis in human Lovo cells assessed as early apoptotic cells at 50 uM after 48 hrs by Annexin V/FITC staining based flow cytometric analysis (reference value: 6.76%); format: functional
[22] = test system: LoVo; assay: Induction of apoptosis in human Lovo cells assessed as late apoptotic cells at 50 uM after 48 hrs by Annexin V/FITC staining based flow cytometric analysis (reference value: 1.84%); format: functional
[23] = test system: LoVo; assay: Induction of apoptosis in human Lovo cells assessed as necrotic cells at 50 uM after 48 hrs by Annexin V/FITC staining based flow cytometric analysis (reference value: 0.321%); format: functional
[24] = test system: LoVo; assay: Induction of apoptosis in human Lovo cells assessed as viable cells at 75 uM after 48 hrs by Annexin V/FITC staining based flow cytometric analysis (reference value: 91.1%); format: functional; details: read-out: Activity
[25] = test system: LoVo; assay: Induction of apoptosis in human Lovo cells assessed as early apoptotic cells at 75 uM after 48 hrs by Annexin V/FITC staining based flow cytometric analysis (reference value: 6.76%); format: functional
[26] = test system: LoVo; assay: Induction of apoptosis in human Lovo cells assessed as late apoptotic cells at 75 uM after 48 hrs by Annexin V/FITC staining based flow cytometric analysis (reference value: 1.84%); format: functional
[27] = test system: LoVo; assay: Induction of apoptosis in human Lovo cells assessed as necrotic cells at 75 uM after 48 hrs by Annexin V/FITC staining based flow cytometric analysis (reference value: 0.321%); format: functional
[28] = Reduction in Ras protein expression in FPPS-positive human HCT116 cells assessed as mean fluorescence intensity upto 75 uM measured after 48 hrs by Western blot analysis relative to untreated control; format: functional, HCT-116; details: dose microM <=75
[29] = Reduction in Ras protein expression in FPPS-positive human LoVo cells assessed as mean fluorescence intensity upto 75 uM measured after 48 hrs by Western blot analysis relative to untreated control; format: functional; details: dose microM <=75
[30] = test system: HCT-116; assay: Induction of apoptosis in human HCT116 cells assessed as viable cells at 25 uM after 48 hrs by Annexin V/FITC staining based flow cytometric analysis (reference value: 92%); format: functional; details: read-out: Activity
[31] = test system: HCT-116; assay: Induction of apoptosis in human HCT116 cells assessed as early apoptotic cells at 25 uM after 48 hrs by Annexin V/FITC staining based flow cytometric analysis (reference value: 1.26%); format: functional
[32] = test system: HCT-116; assay: Induction of apoptosis in human HCT116 cells assessed as late apoptotic cells at 25 uM after 48 hrs by Annexin V/FITC staining based flow cytometric analysis (reference value: 5.63%); format: functional
[33] = test system: HCT-116; assay: Induction of apoptosis in human HCT116 cells assessed as necrotic cells at 25 uM after 48 hrs by Annexin V/FITC staining based flow cytometric analysis (reference value: 1.12%); format: functional
[34] = test system: HCT-116; assay: Induction of apoptosis in human HCT116 cells assessed as viable cells at 50 uM after 48 hrs by Annexin V/FITC staining based flow cytometric analysis (reference value: 92%); format: functional; details: read-out: Activity
[35] = test system: HCT-116; assay: Induction of apoptosis in human HCT116 cells assessed as early apoptotic cells at 50 uM after 48 hrs by Annexin V/FITC staining based flow cytometric analysis (reference value: 1.26%); format: functional
[36] = test system: HCT-116; assay: Induction of apoptosis in human HCT116 cells assessed as late apoptotic cells at 50 uM after 48 hrs by Annexin V/FITC staining based flow cytometric analysis (reference value: 5.63%); format: functional
[37] = test system: HCT-116; assay: Induction of apoptosis in human HCT116 cells assessed as necrotic cells at 50 uM after 48 hrs by Annexin V/FITC staining based flow cytometric analysis (reference value: 1.12%); format: functional
[38] = test system: HCT-116; assay: Induction of apoptosis in human HCT116 cells assessed as viable cells at 75 uM after 48 hrs by Annexin V/FITC staining based flow cytometric analysis (reference value: 92%); format: functional; details: read-out: Activity
[39] = test system: HCT-116; assay: Induction of apoptosis in human HCT116 cells assessed as early apoptotic cells at 75 uM after 48 hrs by Annexin V/FITC staining based flow cytometric analysis (reference value: 1.26%); format: functional
[40] = test system: HCT-116; assay: Induction of apoptosis in human HCT116 cells assessed as late apoptotic cells at 75 uM after 48 hrs by Annexin V/FITC staining based flow cytometric analysis (reference value: 5.63%); format: functional
[41] = test system: HCT-116; assay: Induction of apoptosis in human HCT116 cells assessed as necrotic cells at 75 uM after 48 hrs by Annexin V/FITC staining based flow cytometric analysis (reference value: 1.12%); format: functional
[42] = test system: LoVo; assay: Induction of ROS generation in human Lovo cells assessed as intracellular ROS level at 25 uM by DCFH-DA staining-based flow cytometric analysis (reference value: 9.18%); format: functional
[43] = test system: LoVo; assay: Induction of ROS generation in human Lovo cells assessed as intracellular ROS level at […] 50 by DCFH-DA staining-based flow cytometric analysis (reference value: 9.18%); format: functional; details: dose 50 µM
[44] = test system: HCT-116; assay: Induction of ROS generation in human HCT116 cells assessed as intracellular ROS level at 25 uM by DCFH-DA staining-based flow cytometric analysis (reference value: 8.91%); format: functional
[45] = test system: HCT-116; assay: Induction of ROS generation in human HCT116 cells assessed as intracellular ROS level at 50 uM by DCFH-DA staining-based flow cytometric analysis (reference value: 8.91%); format: functional
[46] = test system: LoVo; assay: Cytotoxicity against FPPS-positive human Lovo cells assessed as cell viability in presence of FOH measured after 48 hrs by MTT assay; format: functional, cell-based
[47] = test system: LoVo; assay: Cytotoxicity against FPPS-positive human Lovo cells assessed as cell viability in presence of GGOH measured after 48 hrs by MTT assay; format: functional, cell-based
[48] = test system: HCT-116; assay: Cytotoxicity against FPPS-positive human HCT116 cells assessed as cell viability in presence of FOH measured after 48 hrs by MTT assay; format: functional, cell-based; details: HCT-116, 48 h
[49] = test system: HCT-116; assay: Cytotoxicity against FPPS-positive human HCT116 cells assessed as cell viability in presence of GGOH measured after 48 hrs by MTT assay; format: functional, cell-based; details: HCT-116, 48 h
[50] = test system: MDA-MB-468; assay: Growth inhibition of human MDA-MB-468 cells at 100 uM incubated for 48 hrs by MTT assay relative to control; details: MDA-MB-468, 48 h, read-out: GI

O=C(CC1(O)C(=O)Nc2ccccc21)CC1(O)C(=O)Nc2ccccc21 (stereo not drawn)
inhibition [1]: 13%
Kd [2]: 181 µM

CCC(C)c1ccc(O[C@@H]2O[C@H](CO)[C@@H](O)[C@H](O)[C@H]2NC(C)=O)cc1 (stereo partly drawn)
inhibition [1]: 25.3%
Kd [2]: 499 µM

COc1ccccc1CN(CCS(=O)(=O)N1CCNCC1)S(=O)(=O)c1ccc(C)cc1
inhibition [1]: 24%
Kd [2]: 14.3 µM
inhibition of growth at 100 µM [3]: 80%
inhibition of growth at 100 µM [4]: 80%
IC50 [5]: 43.6 µM
IC50 [6]: 51.8 µM
IC50 [7]: > 100 µM
viability at 100 µM [8]: 19%
viability at 100 µM [9]: 14.8%
viability at 100 µM [10]: 28.5%
viability at 100 µM [11]: 27.9%
inhibition [12]: Active
inhibition [13]: Active
Activity [14]: 74.6%
Activity [15]: 60.8%
viability at 25 µM [16]: 75.9%
Activity [17]: 17.8%
Activity [18]: 4.29%
Activity [19]: 2.04%
viability at 50 µM [20]: 52.3%
Activity [21]: 24.6%
Activity [22]: 21.2%
Activity [23]: 1.84%
viability at 75 µM [24]: 38.1%
Activity [25]: 32.7%
Activity [26]: 26.5%
Activity [27]: 2.71%
fold change (FC) [28]: 6.82
fold change (FC) [29]: 8.13
viability at 25 µM [30]: 80.9%
Activity [31]: 11.99%
Activity [32]: 5.2%
Activity [33]: 1.98%
viability at 50 µM [34]: 67.5%
Activity [35]: 16.6%
Activity [36]: 14.6%
Activity [37]: 1.28%
viability at 75 µM [38]: 49.9%
Activity [39]: 25.8%
Activity [40]: 20.4%
Activity [41]: 3.86%
Activity [42]: 19.6%
Activity [43]: 48%
Activity [44]: 18.7%
Activity [45]: 30.9%
IC50 [46]: 55.6 µM
IC50 [47]: 51 µM
IC50 [48]: 81.1 µM
IC50 [49]: 73.9 µM
inhibition of growth at 100 µM [50]: 80%

CC(=O)N[C@H]1[C@H](OCc2ccccc2)O[C@H](CO)[C@@H](O)[C@@H]1O
inhibition [1]: 29.9%
Kd [2]: 48.1 µM

O=c1oc2cc(O[C@@H]3O[C@H](CO)[C@@H](O)[C@H](O)[C@H]3O)ccc2c2ccccc12
inhibition [1]: 11.5%
Kd [2]: 106 µM
